Assay results as given in patent publication US6492416B1, “4,5-diaryl-3(2H)-furanone derivatives as cyclooxygenase-2 inhibitors” (Pacific Corporation, priority 1999, dated 2002).
In brackets after ≈: the same amount, converted by molar mass.

Key:
COX-2 = target: T1, COX-2 (Mus musculus, UniProt Q05769); experiment: Evaluation of COX-2 activity: PGE2 formation in aspirin-treated, LPS-stimulated mouse peritoneal macrophages; assay type: cell-based; details: for IC50: read-out: IC50, μg/ml COX-2 (converted)
T1 sequence (Q05769 18-604): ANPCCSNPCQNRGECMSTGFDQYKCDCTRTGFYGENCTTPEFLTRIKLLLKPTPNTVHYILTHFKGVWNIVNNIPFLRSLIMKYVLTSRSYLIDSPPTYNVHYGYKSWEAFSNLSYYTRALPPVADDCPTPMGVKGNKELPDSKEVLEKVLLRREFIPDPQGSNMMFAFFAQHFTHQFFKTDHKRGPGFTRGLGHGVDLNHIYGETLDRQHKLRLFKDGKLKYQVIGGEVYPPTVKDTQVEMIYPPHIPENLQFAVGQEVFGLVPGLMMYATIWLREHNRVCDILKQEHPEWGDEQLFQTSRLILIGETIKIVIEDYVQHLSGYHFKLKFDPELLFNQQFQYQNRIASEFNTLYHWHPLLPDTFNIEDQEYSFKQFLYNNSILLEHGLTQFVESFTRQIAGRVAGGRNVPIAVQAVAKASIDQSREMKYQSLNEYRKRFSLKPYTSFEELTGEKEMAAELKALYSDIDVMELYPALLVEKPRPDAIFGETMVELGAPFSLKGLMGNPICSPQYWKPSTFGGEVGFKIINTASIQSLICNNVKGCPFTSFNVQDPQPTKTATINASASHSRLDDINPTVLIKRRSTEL
Experimental: (§1) Evaluation of in vitro COX-2 and COX-1 Activity [J. Pharmacol. Exp. Ther. 166, 96 (1969)]
(§2) The abdominal skin of a C57BL/6 mouse was sanitized with 70% aqueous ethanol, and was removed without damaging the peritoneum. 5 ml of cold phosphate buffer solution (PBS) was then injected into the abdominal cavity. After a minute, the peritoneal fluid containing the macrophages was collected using a syringe and a needle. The collected fluid was centrifuged for 5 min at 1500 rpm to afford pellets of cells. The pellets were then dispersed in the RPMI-1640 culture medium containing 100 units/ml penicillin and 100 μg/ml streptomycin.
The pellets dispersed as above were treated with 500 μM aspirin in order to knock out the activity of the COX-1 enzymes in the cells. The suspension was then diluted with the RPMI-1640 medium to contain 1×10^6 cells/ml. 100 μl of the suspension was added to each well of a 96-well ELISA plate. Then the plate was incubated for 2 hrs at 37° C. under 5% CO2 in order to fix the macrophages onto the plate. The cells, which were not fixed onto the plate were removed by washing with PBS two times. […] The RPMI-1640 medium containing 3% fetal bovine serum albumin was added to each well of the plate, which was followed by stimulation with 10 μg/ml lipopolysaccharide (LPS). […] The LPS-treated suspensions were incubated for 16 hours at 37° C. under 5% CO2 to induce COX-2. Then the culture medium was removed and the macrophages were washed two times with PBS. Then 130 μl RPMI-1640 culture medium was added to each well and the macrophage solutions were incubated at 37° C. for 10 minutes, which was followed by the treatment with 10 μM arachidonic acid and an appropriate amount of compounds of this invention. The plate was incubated for another 10 minutes. The upper solution was collected using a micropipette and was subjected to determination of PGE2 amount in the solution. The amount of PGE2 present in the collected solution was determined either by a known radio-immuno assay or by a known enzyme-immunoassay [Methods in Enzymol. 86, 258 (1982); Methods in Enzymol. 187, 24 (1990)]. The extent of COX-2 inhibition by a compound of the present invention was calculated by assuming, that the amount of PGE2 formed with the treatment of 10 μg/ml arachidonic acid was used is the maximum possible amount of PGE2, and that the amount of PGE2 formed without the treatment of arachidonic acid is the minimum possible amount of PGE2.
(§3) In order to determine IC50 for a compound of this invention, enzymatic activities were measured at multiple concentrations of compounds of this invention around IC50 of the compound. Usually enzymatic activities at 4˜5 concentrations were measured to calculate out IC50 for a compound of this invention.

COX-1 = target: T2, COX-1 (Mus musculus, UniProt P22437); experiment: Evaluation of COX-1 activity: PGE2 formation in mouse peritoneal macrophages without aspirin and LPS treatment; assay type: cell-based; details: for IC50: read-out: IC50, μg/ml COX-1 (converted)
T2 sequence (P22437 27-602): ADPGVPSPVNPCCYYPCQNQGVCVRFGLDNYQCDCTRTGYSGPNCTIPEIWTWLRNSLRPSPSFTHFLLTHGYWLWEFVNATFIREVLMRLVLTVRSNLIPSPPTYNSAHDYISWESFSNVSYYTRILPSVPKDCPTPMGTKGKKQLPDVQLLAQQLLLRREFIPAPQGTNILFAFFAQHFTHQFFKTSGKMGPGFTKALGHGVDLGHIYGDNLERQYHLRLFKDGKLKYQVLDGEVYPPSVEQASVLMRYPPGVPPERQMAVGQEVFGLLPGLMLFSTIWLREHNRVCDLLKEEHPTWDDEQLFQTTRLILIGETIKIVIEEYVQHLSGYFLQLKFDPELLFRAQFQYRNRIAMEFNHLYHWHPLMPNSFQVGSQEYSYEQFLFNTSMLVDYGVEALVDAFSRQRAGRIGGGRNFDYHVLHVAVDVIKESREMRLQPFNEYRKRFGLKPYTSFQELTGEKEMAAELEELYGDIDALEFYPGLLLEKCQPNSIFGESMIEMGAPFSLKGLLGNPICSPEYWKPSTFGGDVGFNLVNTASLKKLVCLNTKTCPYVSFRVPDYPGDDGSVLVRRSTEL
Experimental: as §1, §2
The pellets dispersed as above were treated with 500 μM aspirin in order to knock out the activity of the COX-1 enzymes in the cells. The suspension was then diluted with the RPMI-1640 medium to contain 1×10^6 cells/ml. 100 μl of the suspension was added to each well of a 96-well ELISA plate. Then the plate was incubated for 2 hrs at 37° C. under 5% CO2 in order to fix the macrophages onto the plate. The cells, which were not fixed onto the plate were removed by washing with PBS two times. The purity of macrophages obtained thereby was confirmed by differential counting. The RPMI-1640 medium containing 3% fetal bovine serum albumin was added to each well of the plate, which was followed by stimulation with 10 μg/ml lipopolysaccharide (LPS). Usually 5×10^5 cells/ml were present by this preparation. The LPS-treated suspensions were incubated for 16 hours at 37° C. under 5% CO2 to induce COX-2. Then the culture medium was removed and the macrophages were washed two times with PBS. Then 130 μl RPMI-1640 culture medium was added to each well and the macrophage solutions were incubated at 37° C. for 10 minutes, which was followed by the treatment with 10 μM arachidonic acid and an appropriate amount of compounds of this invention. The plate was incubated for another 10 minutes. The upper solution was collected using a micropipette and was subjected to determination of PGE2 amount in the solution. The amount of PGE2 present in the collected solution was determined either by a known radio-immuno assay or by a known enzyme-immunoassay [Methods in Enzymol. 86, 258 (1982); Methods in Enzymol. 187, 24 (1990)]. The extent of COX-2 inhibition by a compound of the present invention was calculated by assuming, that the amount of PGE2 formed with the treatment of 10 μg/ml arachidonic acid was used is the maximum possible amount of PGE2, and that the amount of PGE2 formed without the treatment of arachidonic acid is the minimum possible amount of PGE2.
In the evaluation of COX-1 inhibitory activity by a compound of the present invention, the same procedures employed for evaluation of COX-2 activity were employed, except omitting the following two steps: 1) the treatment with aspirin for knockout of COX-1 activity and 2) treatment with LPS for induction of COX-2.
as §3

SMILES	melting point	IC50, μg/ml COX-2 (COX-2)	IC50, μg/ml COX-1 (COX-1)	IC50 (COX-2)	IC50 (COX-1)
CC1(C)OC(c2ccc(S(N)(=O)=O)cc2)=C(c2cc(Cl)cc(Cl)c2)C1=O [Example 149]	209 to 210 °C	0.0087 µg/mL (≈ 0.0211 µM)	1.01 µg/mL (≈ 2.45 µM)		
CC1(C)OC(c2ccc(S(C)(=O)=O)c(F)c2)=C(c2cc(F)ccc2F)C1=O [Example 282]	140 to 141 °C	0.03 µg/mL (≈ 0.0757 µM)	30 µg/mL (≈ 75.7 µM)		
CC1(C)OC(c2ccc(S(C)(=O)=O)cc2F)=C(c2cccc(F)c2)C1=O [Example 323]	157 to 158 °C	0.03 µg/mL (≈ 0.0793 µM)	10 µg/mL (≈ 26.4 µM)		
CC1(C)OC(c2ccc(S(C)(=O)=O)cc2)=C(c2ccc(C(C)(C)C)cc2)C1=O [Example 76]	142 to 143 °C	0.5 µg/mL (≈ 1.25 µM)	50 µg/mL (≈ 125 µM)		
CC1(C)OC(c2ccc(S(N)(=O)=O)cc2)=C(c2ccco2)C1=O [Example 160]	156 to 157 °C	0.057 µg/mL (≈ 0.171 µM)	>10 µg/mL		
CCCc1ccc(C2=C(c3ccc(S(C)(=O)=O)cc3)OC(C)(C)C2=O)cc1 [Example 96]	99 to 100 °C	0.02 µg/mL (≈ 0.052 µM)	3 µg/mL (≈ 7.8 µM)		
CC1(C)OC(c2ccc(S(C)(=O)=O)cc2)=C(c2ccc(C=O)s2)C1=O [Example 121]	168 to 170 °C	0.2 µg/mL (≈ 0.531 µM)	30 µg/mL (≈ 79.7 µM)		
COc1ccccc1C1=C(c2ccc(S(C)(=O)=O)cc2)OC(C)(C)C1=O [Example 64]	109 to 111 °C	0.1 µg/mL (≈ 0.268 µM)	50 µg/mL (≈ 134 µM)		
CCC1(CC)OC(c2ccc(S(C)(=O)=O)cc2)=C(c2ccc(C(F)(F)F)cc2)C1=O [Example 246]	121 to 122 °C	0.03 µg/mL (≈ 0.0684 µM)	3 µg/mL (≈ 6.84 µM)		
CC1(C)OC(c2ccc(S(C)(=O)=O)cc2)=C(c2ccc(O)cc2)C1=O [Example 104, 2,2-Dimethyl-4-(4-hydroxyphenyl)-5-{4-(methylsulfonyl)phenyl}-3(2H)-furanone]	150 to 152 °C	0.3 µg/mL (≈ 0.837 µM)	100 µg/mL (≈ 279 µM)		
CC1(C)OC(c2ccc(S(N)(=O)=O)c(F)c2)=C(c2ccccc2Cl)C1=O [Example 304]	122 to 123 °C	0.05 µg/mL (≈ 0.126 µM)	50 µg/mL (≈ 126 µM)		
CC1(C)OC(c2ccc(S(C)(=O)=O)c(F)c2)=C(c2cccc(F)c2)C1=O [Example 275]	182 to 183 °C	0.03 µg/mL (≈ 0.0793 µM)	200 µg/mL (≈ 529 µM)		
CC1(C)OC(c2ccc(S(N)(=O)=O)c(Cl)c2)=C(c2ccccc2)C1=O [Example 367, 5-{4-(Aminosulfonyl)-3-chlorophenyl}-2,2-dimethyl-4-phenyl-3(2H)-furanone]	193 to 194 °C	0.06 µg/mL (≈ 0.159 µM)	8 µg/mL (≈ 21.2 µM)		
CNS(=O)(=O)c1ccc(C2=C(c3ccccc3)C(=O)C(C)(C)O2)cc1Cl [Example 372, 5-{3-Chloro-4-(N-methylaminosulfonyl)phenyl}-2,2-dimethyl-4-phenyl-3(2H)-furanone]	136 to 137 °C	0.09 µg/mL (≈ 0.23 µM)	200 µg/mL (≈ 510 µM)		

The remaining lines, values ahead:

melting point	IC50, μg/ml COX-2 (COX-2)	IC50, μg/ml COX-1 (COX-1)	IC50 (COX-2)	IC50 (COX-1)	SMILES
154 to 155 °C	0.01 µg/mL (≈ 0.025 µM)	1.07 µg/mL (≈ 2.68 µM)			CCC1(C)OC(c2ccc(S(N)(=O)=O)cc2)=C(c2ccc(C(C)=O)cc2)C1=O (stereo not drawn) [Example 45, 4-(4-Acetylphenyl)-5-{4-(aminosulfonyl)phenyl}-2-ethyl-2-methyl-3(2H)-furanone]
48 to 49 °C			0.081 µM	8.1 µM	CCC1(C)OC(c2ccc(S(C)(=O)=O)cc2)=C(c2cccc(C)c2)C1=O (stereo not drawn) [Example 193]
168 to 170 °C			0.0654 µM	6.54 µM	CCC1(C)OC(c2ccc(S(C)(=O)=O)cc2)=C(c2ccc(Cl)c(C(F)(F)F)c2)C1=O (stereo not drawn) [Example 198]
186 to 187 °C	0.05 µg/mL (≈ 0.14 µM)	50 µg/mL (≈ 140 µM)			CC1(C)OC(c2ccc(S(C)(=O)=O)cc2)=C(c2cccc(N)c2)C1=O [Example 66, 4-(3-aminophenyl)-2,2-dimethyl-5-{4-(methylsulfonyl)phenyl}-3(2H)-furanone]
108 to 109 °C			0.801 µM	80.1 µM	CCC1(C)OC(c2ccc(S(C)(=O)=O)cc2)=C(c2ccccc2F)C1=O (stereo not drawn) [Example 188]
182 to 183 °C	0.03 µg/mL (≈ 0.0837 µM)	50 µg/mL (≈ 140 µM)			CC1(C)OC(c2ccc(S(C)(=O)=O)cc2)=C(c2ccccc2O)C1=O [Example 105]
115 to 117 °C	0.2 µg/mL (≈ 0.561 µM)	20 µg/mL (≈ 56.1 µM)			CCC1(C)OC(c2ccc(S(C)(=O)=O)cc2)=C(c2ccccc2)C1=O (stereo not drawn) [Example 31, 2-Ethyl-2-methyl-5-{4-(methylsulfonyl)phenyl}-4-phenyl-3(2H)-furanone]
